The numbers were not newly measured in patent publication US20240099974A1, “TREATMENT AGENT” (FUJIFILM Corporation, priority 2021, published 2024), which cites them from elsewhere.

The conditions of the data set: iv; Mould et al., 2002, Ait-Oudhia, Mager and Straubinger 2014.

As to `CC[C@@]1(O)C(=O)OCc2c1cc1n(c2=O)Cc2cc3c(CN(C)C)c(O)ccc3nc2-1` [topotecan], the “clearance in a case where topotecan is intravenously administered” value was 18.6 L/h.
